Data published in patent publication US20240299303A1, “NANOSTRUCTURE OR MICROSTRUCTURE AND METHOD FOR PRODUCING SAME” (The University of Tokyo, priority 2021, published 2024).

Legend:
Assay type in all cases: physicochemical
[1] = Introduction of compounds into nanosheets, absorbance of supernatant after centrifugation; conditions: for introduction amount relative to the weight of the nanosheets: Examples 4-8; for introduction amount relative to the weight of the nanosheets / Weight of introduced compound/weight of nanosheets: crosslinked β-cyclodextrin nanosheets; for Weight of introduced compound/weight of nanosheets: Table 1; for Concentration of introduced compound before introduction: in nanosheet dispersion, defined in consideration of dilution with moisture in the dispersion; for Concentration of introduced compound before introduction / Concentration of introduced compound after introduction: nanosheets 43 mg/mL (Examples 4-6) or 17 mg/mL (Examples 7-8); for amount of compound introduced into the nanosheets (reduction in concentration before and after introduction): nanosheets 43 mg/mL (Examples 4-6) or 17 mg/mL (Example 8); for Concentration of introduced compound after introduction: supernatant after shaking at room temperature 48 hours and centrifugation, absorbance
Description: (§1) 700 Microliters of an aqueous solution (300 μg/mL) of 5-fluorouracil was added to 500 mg of the nanosheet dispersion-1 obtained in Example 1, and the mixture was shaken at room temperature for 48 hours. The nanosheet dispersion having introduced thereinto 5-fluorouracil was centrifuged (at 12,000 rpm for 10 minutes), and the supernatant liquid was collected.
The introduction amount of 5-fluorouracil was determined by the same process as that of Example 4 except that a concentration-absorbance calibration curve was produced at a predetermined wavelength (λ=270 nm).
as §1, with “(100” for “(300”, “hydrocortisone” for “5-fluorouracil”
The introduction amount of hydrocortisone was determined by the same process as that of Example 4 except that a concentration-absorbance calibration curve was produced at a predetermined wavelength (λ250 nm).
as §1, with “500” for “700”, “(30” for “(300”, “betamethasone” for “5-fluorouracil”, “100” for “500”
The introduction amount of betamethasone was determined by the same process as that of Example 4 except that a concentration-absorbance calibration curve was produced at a predetermined wavelength (λ=250 nm).
as §1, with “500” for “700”, “(30” for “(300”, “menadione” for “5-fluorouracil”, “100” for “500”
The introduction amount of menadione was determined by the same process as that of Example 4 except that a concentration-absorbance calibration curve was produced at a predetermined wavelength (λ=250 nm).

[2] = Introduction of molecules into crosslinked body of porous microstructural body (UV-visible, supernatant); conditions: adsorption from aqueous dispersion; Example 10
Description: A low-molecular weight compound was added, and caused to adsorb, to the aqueous dispersion of the porous γ-PPG4k-Plate crosslinked body, and then the porous γ-PPG4k-Plate crosslinked body was sedimented by centrifugation. The concentration of the low-molecular weight compound present in the supernatant liquid obtained at that time was determined by a UV-visible spectral method. Thus, the amount of the low-molecular weight compound adsorbing to the porous γ-PPG4k-Plate crosslinked body was determined.

[3] = Introduction of rhodamine B into crosslinked nanosheets (fluorescence microscope); conditions: rhodamine B 100 μg/mL aqueous solution, shaken room temperature 24 hours, diluted fivefold
Description: 900 Microliters of an aqueous solution (100 μg/mL) of rhodamine B was added to 50 mg of the nanosheet dispersion-1 (sample IT-162) obtained in Example 1, and the mixture was shaken at room temperature for 24 hours. […] The results are shown in FIG. 10(A) and FIG. 10(B), respectively. The crystal structures of nanosheets were able to be observed with the phase-contrast microscope.

[4] = Introduction of rhodamine B into uncrosslinked nanosheets (fluorescence microscope); conditions: rhodamine B 1,000 μg/mL aqueous solution, shaken room temperature 24 hours
Description: 100 Microliters of an aqueous solution (1,000 μg/mL) of rhodamine B was added to 90 mL of the uncrosslinked nanosheet dispersion (sample IT-142) obtained in Comparative Example 1, and the mixture was shaken at room temperature for 24 hours. […] The results are shown in FIG. 11(A) and FIG. 11(B), respectively. The crystal structures of nanosheets were able to be observed with the phase-contrast microscope.

[5] = Introduction of molecules into porous nanosheet crosslinked body (UV-visible, supernatant); conditions: adsorption from aqueous dispersion; Example 9
Description: A low-molecular weight compound was added, and caused to adsorb, to the aqueous dispersion of the porous γ-plu108-NS crosslinked body, and then the porous γ-plu108-NS crosslinked body was sedimented by centrifugation. The concentration of the low-molecular weight compound present in the supernatant liquid obtained at that time was determined by a UV-visible spectral method. Thus, the amount of the low-molecular weight compound adsorbing to the porous γ-plu108-NS crosslinked body was determined.

SMILES	introduction amount relative to the weight of the nanosheets [1] [wt %]	Weight of introduced compound/weight of nanosheets [1] [%]	Concentration of introduced compound before introduction [1] [ng/mL]	amount of compound introduced into the nanosheets (reduction in concentration before and after introduction) [1] [µg/mL]	Concentration of introduced compound after introduction [1] [ng/mL]	introduction into the porous γ-PPG4k-Plate crosslinked body [2]	also measured
CC1=CC(=O)c2ccccc2C1=O [Menadione, menadione]	0.09	0.09	25000	15	10000		
C[C@]12CCC(=O)C=C1CC[C@@H]1[C@@H]2[C@@H](O)C[C@@]2(C)[C@H]1CC[C@]2(O)C(=O)CO [Hydrocortisone, hydrocortisone]	0.08	0.08	61000	35	26000		
O=C(O)CCCC[C@@H]1SC[C@@H]2NC(=O)N[C@@H]21 [biotin]						not introduced	
CCN(CC)c1ccc2c(-c3ccccc3C(=O)O)c3ccc(=[N+](CC)CC)cc-3oc2c1.[Cl-] [rhodamine B]						not introduced	fluorescent coloring in the crystal structures (rhodamine B introduction) [3]: fluorescent coloring was observed; fluorescent coloring in the crystal structures (rhodamine B introduction) [4]: almost no fluorescent coloring was observed
CCCCC/C=C\C/C=C\CCCCCCCC(=O)O [linoleic acid]							ratio of the weight of the low-molecular weight compound to the total sum of the weights of the compound and the porous γ-plu108-NS crosslinked body [5]: 5.3 wt %; ratio of the weight of the low-molecular weight compound to the total sum of the weights of the compound and the porous γ-PPG4k-Plate crosslinked body [2]: 0.9 wt %
O=c1ccc2ccccc2o1 [coumarin]							ratio of the weight of the low-molecular weight compound to the total sum of the weights of the compound and the porous γ-plu108-NS crosslinked body [5]: 0.5 wt %; ratio of the weight of the low-molecular weight compound to the total sum of the weights of the compound and the porous γ-PPG4k-Plate crosslinked body [2]: 0.6 wt %
CCN[C@H]1C[C@H](C)S(=O)(=O)c2sc(S(N)(=O)=O)cc21 [dorzolamide]						not introduced	
O=C(O)c1cccnc1 [nicotinic acid]						not introduced	
O=c1[nH]cc(F)c(=O)[nH]1 [5-Fluorouracil, 5-fluorouracil]	0.10	0.10	183000	45	138000		
